From patent US20210230213A1, “ARAMCHOL SALTS” (GALMED RESEARCH AND DEVELOPMENT LTD., priority 2013, published 2021)
Several values for one entry are separate records, joined by “and”; a condition that tells them apart may be missing. Identical values can stand only once.

What was measured:
[1] = Mathematical extrapolation of dog data to humans for meglumine salt
[2] = Twice daily administration for 10 days of Aramchol and Aramchol meglumine in humans (Example 9); format: in vivo; conditions: free acid 300 mg, meglumine salt 383 mg
Method: 300 mg aramchol free acid were administered to human subjects twice daily, and 383 mg aramchol meglumine salt were administered to human subjects twice daily, as detailed in FIG. 13.

[3] = water
[4] = Pharmacokinetics of capsules in dogs, single dose and BID (Example 8); conditions: dogs
Method: Capsules containing 100 mg of Aramchol were dosed to dogs as either the free acid or the meglumine salt.
The complete data-set across all animals and time-points for each dose form (free acid or meglumine salt) were fit to single compartment PK models with first order rate of absorption Ka (h−1) and elimination parameterised by CL and V (rate of elimination=CL/V, h−1). For the meglumine salt group, the first dose data for M5 was removed.
Capsules containing 100 mg of Aramchol were dosed to dogs as either the free acid or the meglumine salt BID. […] A clinical study that investigated the plasma concentration of Aramchol after oral dosing of 300 mg BID at steady state was conducted in 16 healthy volunteers.

[5] = Fill weight of size 00 HPMC capsule; format: physicochemical; conditions: hard HPMC capsule size 00, filled as is without tapping
Description: Aramchol (free acid), and the three salts were filled as are, into hard HPMC (Hypromellose; Capsule size 00 (CapsCanada, ON, Canada) without taping, fill weight is presented in table 9.

Bulk and tapped density = format: physicochemical
Description: Measurements of tapped and bulk densities are used to predict the flow properties and compressibility of powders. These two properties are important for manufacture of solid dosage formulations, such as tablets and capsules. Compounds with low values of tapped and bulk densities may be subject to difficulties in tablet compression, and therefore may require additional processing for improving flow properties. […] Therefore, to improve flow properties a wet granulation process is used prior to tablet compression.

[6] = Dynamic Vapour Sorption (DVS); format: physicochemical
Method: The samples was weighed in a glass pan, typically 20-30 mg, and equilibrated at 0% relative humidity (RH). After the material had dried, the RH was increased with 10% per step for 1 hour per increment, ending at […].
The software used for data collection was DVSWin v3.01 No Video. Data analysis was performed using DVS Standard Analysis Suite v6.3.0 (Standard).
After completion of sorption cycle, the material was dried. XRPD was performed before and after DVS.

[7] = Accelerated stability of Aramchol N-methylglucamine at 40° C./75% RH (Example 5); format: physicochemical; conditions: for assay: calculated against free acid reference
Method: The following parameters were determined at t=0, t=1 week, t=2 weeks: appearance, LC-purity, LC-assay (the assay is calculated against the reference which is the free acid and therefore, the results are less than 100%), water content. The appearance and purity remained unchanged under the investigated conditions. […] The calculated assay remained relatively unchanged under the investigational conditions. Water content increased under the investigational conditions and the material seemed hygroscopic. The attraction of water in the solid state form was more prominent for material stored in an open container.

[8] = humans, prediction using % CV 24.3
[9] = capsule, Day 1, individual animals, listed as Aramchol meglumine salt
[10] = capsule, Day 1 single dose, Mean
[11] = capsule, Day 11, individual animals, listed as Aramchol meglumine salt
[12] = capsule, Day 11 final dose after BID dosing, Mean

3β-arachidylamido-7α,12α-dihydroxy-5β-cholan-24-oic acid N-methylglucamine salt
AUCss [1]: 144,295 ng*h/mL | AUCss ([1]; embodiment, b22 and b98 say the value pertains to dogs): 144,295 ng*h/mL | maximum plasma exposure [1, 8]: 179.382 µg·h/mL | minimum plasma exposure [1, 8]: 109.208 µg·h/mL | AUCss 0-12 h ([2]; BID for 10 days): 109 µg·h/mL | Cavg ([2]; BID for 10 days, listed as 3β-arachidylamido-7α,12α-dihydroxy-5β-cholan-24-oic acid-meglumine salt): 8,318 ng/ml | Cavg ([2]; BID for 10 days, listed as Aramchol Meglumine): 8318 ng/mL | Cavg ([2]; BID for 10 days, listed as aramchol meglumine salt): 8318 ng/mL | AUCss ([2]; BID): 109,000 ng*h/mL | Dissolved (50 in g in 1) at 50° C. ([3]; Aramchol free acid and base 1:1, 50° C.): Yes | salt remains in solution after cooling to 20° C. ([3]; cooled to 20° C.): no | higher plasma exposure than free acid at the same molar dose [4]: 26% | AUCss ([4]; 100 mg BID capsules, AUC 0-72 h from last administration on day 11, N = 3): 1,143,428 ng*h/mL | Cmax ([4]; capsule 100 mg Aramchol, Day 1 single dose, Mean): 4880 ng/mL | Cmax ([4]; capsule, Day 1, individual animals (1M-3M free acid, 4M-6M meglumine salt), listed as Aramchol meglumine salt): 5770 ng/mL and 1720 ng/mL and 7160 ng/mL | AUC0-12 [4, 9]: 34.8 µg·h/mL and 3.8 µg·h/mL and 53.2 µg·h/mL | AUCinf [4, 9]: 205 µg·h/mL and 66.9 µg·h/mL and 440 µg·h/mL | Half-life [4, 9]: 19.2 h and 23.1 h and 26.1 h | Tmax [4, 9]: 12 h and 24 h | AUC0-12 [4, 10]: 30.6 µg·h/mL | AUCinf [4, 10]: 237 µg·h/mL | Half-life [4, 10]: 22.8 h | Tmax [4, 10]: 20 h | AUC0-12 [4, 11]: 365 µg·h/mL and 302 µg·h/mL and 315 µg·h/mL | AUCinf [4, 11]: 1600 µg·h/mL and 1150 µg·h/mL and 1590 µg·h/mL | Cmax [4, 11]: 37600 ng/mL and 38800 ng/mL and 28300 ng/mL | Half-life [4, 11]: 29.6 h and 28.9 h and 35.3 h | Tmax [4, 11]: 8 h and 4 h | AUC0-12 [4, 12]: 328 µg·h/mL | AUCinf [4, 12]: 1450 µg·h/mL | Cmax [4, 12]: 34900 ng/mL | Half-life [4, 12]: 31.3 h | Tmax [4, 12]: 6.67 h | greater exposure using the salt (from model Cl) ([4]; compartmental modelling): 28% | AUCinf from day 11 onwards ([4]; final dose day 11): 1450 µg·h/mL | AUC0-12 D11 ([4]; final dose day 11, steady state): 328 µg·h/mL | AUCinf D1 ([4]; first dose day 1, all animals): 237 µg·h/mL | AUCinf D1 ([4]; first dose day 1, animal 5M (M5) excluded): 323 µg·h/mL | Cl ([4]; single compartment PK model): 320 | AUCinf higher than the free acid ([4]; single dose day 1, animal 5M excluded): 34% | fill weight of one 00 size capsule [5]: 0.30 gram | Bulk density (Bulk and tapped density): 0.57 g/mL | Tapped density (Bulk and tapped density): 0.66 g/mL | total mass uptake (DVS) ([6]; Example 4 material, sorption to 95% RH, […]): 16% | Mass uptake (DVS) ([6]; RH raised from 0% in 10% steps to 95% RH, stepwise, reversible): 14.9% (stepwise; reversible) | purity ([7]; 40° C./75% RH, as a solution in a closed flask, T = 0): 99.5% | purity ([7]; 40° C./75% RH, as a solution in a closed flask, T = 1 (week)): 99.5% | purity ([7]; 40° C./75% RH, as a solution in a closed flask, T = 2 (weeks)): 99.5% | water ([7]; 40° C./75% RH, solid in a closed container, T = 0): 1.2% | water ([7]; 40° C./75% RH, solid in a closed container, T = 1 (week)): 1.6% | water ([7]; 40° C./75% RH, solid in a closed container, T = 2 (weeks)): 2.0% | water ([7]; 40° C./75% RH, solid in an open container, T = 0): 1.2% | water ([7]; 40° C./75% RH, solid in an open container, T = 1 (week)): 4.3% | water ([7]; 40° C./75% RH, solid in an open container, T = 2 (weeks)): 5.7% | purity ([7]; 40° C./75% RH, solid state form in a closed container, T = 0): 99.5% | purity ([7]; 40° C./75% RH, solid state form in a closed container, T = 1 (week)): 99.4% | purity ([7]; 40° C./75% RH, solid state form in a closed container, T = 2 (weeks)): 99.5% | purity ([7]; 40° C./75% RH, solid state form in an open container, T = 0): 99.5% | purity ([7]; 40° C./75% RH, solid state form in an open container, T = 1 (week)): 99.5% | purity ([7]; 40° C./75% RH, solid state form in an open container, T = 2 (weeks)): 99.5% | purity on exposure to 40° C./75% RH ([7]; 40° C./75% RH, up to 2 weeks): no change to purity values | assay ([7]; solid in a closed container, T = 0): 74.7% | assay ([7]; solid in a closed container, T = 1 (week)): 72.8% | assay ([7]; solid in a closed container, T = 2 (weeks)): 74.4% | assay ([7]; solid in an open container, T = 0): 74.7% | assay ([7]; solid in an open container, T = 1 (week)): 76.7% | assay ([7]; solid in an open container, T = 2 (weeks)): 71.9% | assay ([7]; solution in a closed flask, T = 0): 74.7% | assay ([7]; solution in a closed flask, T = 1 (week)): 75.3% | assay ([7]; solution in a closed flask, T = 2 (weeks)): 74.8%
